Laboratory results reported in PMC10945480 (Journal of Medicinal Chemistry, 2024).

Key:
[1] = tested on: washed human platelets; test: Collagen-induced platelet aggregation; type: cell-based; conditions: Platelet; washed human platelets, collagen (5 μg/mL)
Experimental: (§1) The antiplatelet effects of the JUG derivatives were evaluated by measuring human platelet aggregation, which can be regulated by cell surface PDI. Platelet aggregation was induced with platelet activators U46619 (a mimetic of thromboxane A2) and collagen (binding to GPVI).
(§2) Washed human platelets were prepared from acid citrate dextrose-anticoagulated blood of healthy human volunteers as described previously.[73] The study was approved by the Institutional Review Board of Kaohsiung Medical University, and informed consent was obtained from every volunteer. Platelet aggregation was measured by using a turbidimetric aggregometer (Chrono-Log Co., USA) under stirring conditions (1200 rpm) at 37 °C. The extent of platelet aggregation was measured as the maximal increase of light transmission after the addition of the stimulators U46619 and collagen.[73] In the TCIPA assay, platelet aggregation was induced by A549 (1 × 10^4 cells/mL), MDA-MB-231 (1 × 10^2 cells/mL), or RPMI8226 (1 × 10^5 cells/mL) cancer cells in the presence of 0.375% plasma.[74]

[2] = tested on: washed human platelets; test: U46619-induced platelet aggregation; type: cell-based; conditions: Platelet; washed human platelets, U46619 (1 μM)
Experimental: as §1, §2

[3] = tested on: breast cancer MDA-MB-231; test: Cell viability, resazurin assay, MDA-MB-231; conditions: Homo sapiens, MDA-MB-231, 24 h, read-out: MDA-MB-231 IC50
Experimental: (§3) Cells were maintained in a humidified incubator at 37 °C in 5% CO2, and cell viability was determined with the resazurin assay (Cayman Chemical, USA) after the incubation with compounds for indicated concentrations and times or DMSO as control.[72]

[4] = molecular target: platelet surface PDI (Homo sapiens, UniProt P07237); test: Cell surface PDI reductase activity on intact human platelets (Di-E-GSSG assay); conditions: read-out: Surface PDI IC50; intact human platelets, Di-E-GSSG, 5 μM DTT
Sequence of platelet surface PDI (P07237 18-508): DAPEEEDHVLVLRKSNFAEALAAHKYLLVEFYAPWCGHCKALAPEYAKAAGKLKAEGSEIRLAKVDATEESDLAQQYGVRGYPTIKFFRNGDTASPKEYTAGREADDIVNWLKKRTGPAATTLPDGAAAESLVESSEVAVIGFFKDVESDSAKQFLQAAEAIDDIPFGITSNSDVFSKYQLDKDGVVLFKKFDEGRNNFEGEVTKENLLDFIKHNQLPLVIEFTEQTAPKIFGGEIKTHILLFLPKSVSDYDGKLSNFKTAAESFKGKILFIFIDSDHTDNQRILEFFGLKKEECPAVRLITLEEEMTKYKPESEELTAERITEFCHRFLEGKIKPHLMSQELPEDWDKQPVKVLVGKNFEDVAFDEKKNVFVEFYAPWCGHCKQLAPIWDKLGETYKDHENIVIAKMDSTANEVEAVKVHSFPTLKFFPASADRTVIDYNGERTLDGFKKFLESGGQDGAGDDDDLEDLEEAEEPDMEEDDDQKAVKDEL
Experimental: (§4) In this assay, a nonfluorescent substrate, dieosin glutathione disulfide (Di-E-GSSG), was reduced into a fluorescent product eosin-glutathione (E-GSH) by platelet surface PDI in the presence of 5 μM dithiothreitol (DTT).

[5] = tested on: human vascular endothelial EA.hy926 cells; test: Cell viability, resazurin assay, EA.hy926; conditions: EA.hy 926, 24 h, read-out: EAhy926 IC50
Experimental: as §3

[6] = tested on: lung cancer A549; test: Cell viability, resazurin assay, A549; conditions: Homo sapiens, A549, 24 h, read-out: A549 IC50
Experimental: as §3

[7] = molecular target: purified human recombinant PDI (rPDI) (Homo sapiens, UniProt P07237); test: Recombinant PDI reductase activity (Di-E-GSSG assay); conditions: read-out: rPDI IC50; human recombinant PDI, Di-E-GSSG, 5 μM DTT
Sequence of purified human recombinant PDI (rPDI) (P07237 18-508): as above
Experimental: as §4

[8] = tested on: multiple myeloma RPMI8226; test: Cell viability, resazurin assay, RPMI8226; conditions: for S.I. (EAhy926/RPMI8226), selectivity index: 24 h IC50 ratio; for IC50: Homo sapiens, RPMI-8226, 24 h, read-out: RPMI8226 IC50
Experimental: as §3

[9] = tested on: glioma U87; test: Cell viability, resazurin assay, U87; conditions: Homo sapiens, 24 h, read-out: U87 IC50
Experimental: as §3

[10] = Parallel artificial membrane permeability assay (PAMPA); conditions: 50 μM, 25 ℃, 3 h, verapamil = 100%, ranitidine = 0%
Experimental: 1. Parallel artificial membrane permeability assay (PAMPA). […]
evolution instruments from pION Inc. In the PAMPA assay, a set of sandwich plates consists of a 96-well microtiter donor plate at the bottom and a 96-well filter acceptor plate on the top from […]
The stock solutions of samples were prepared at 10 mM concentrations in DMSO and stored at 0 ℃ before use. Before being added to a 96-well filter plate, the stock solution was diluted first with buffer to achieve a final sample concentration of 50 μM and to reduce the DMSO concentration below 1% (v/v). Each well of the 96-well donor plate was filled with a 200 μL diluted sample solution (50 μM), and the 96-well filter acceptor plate was then wetted with a 5 μL 2% w/v dioleyoylphosphatidylcholine (DOPC) in n-dodecane and subsequently placed on the donor wells.
Immediately, the acceptor wells were filled with 200 μL of buffer solution and the PAMPA plate sandwich was sealed and incubated at 25 ℃ for 3 h. After reaching the permeation time, the PAMPA plate sandwich was separated and transferred to 96-well UV plates respectively. The amounts of drugs in both the donor and acceptor compartments were measured by comparing the experimental spectra with the UV spectrum (220∼400 nm) obtained from reference standards.

[11] = UPLC-MS analysis of compound metabolites in water with or without GSH; type: physicochemical; conditions: 37 °C, 30 min
Experimental: GSH is the major cellular nonprotein thiol, which exists within cells at millimolar concentrations (1–8 mM) while is present extracellularly at only a few micromolar.[53] The high concentrations of intracellular GSH thus may compete with the binding of PDI to covalent PDI inhibitors.[54] […] In this assay, the noncovalent PDI inhibitor isoquercetin was used as a negative control.
Compounds (400 μM) were incubated in water (250 μL) with or without GSH (4 mM) at 37 °C for 30 min. The compound mixture was diluted with methanol (250 μL) and used for UPLC-MS analysis Metabolite analysis was performed on an ACQUITY UPLC I-Class/SQ Detector 2 (Waters, Milford, USA). The reverse phase BEH C18 column (100 mm × 2.1 mm, 1.7 μm, Waters) and VanGuard BEH C18 guard column (5 mm × 2.1 mm, 1.7 μm, Waters) were used. All data were acquired by Empower 3. The mobile phase for LC separation was Millipore water (A) and acetonitrile (B), and the program was as follows: 0.00 min 90% A → 0.50 min 90% A → 6.50 min 5% A → 8.50 min 5% A → 8.60 min 90% A → 9.00 min 90% A; at a rate of 0.4 mL/min for 9.00 min with 5 μL per injection. The temperature of the column oven was maintained at 40 °C. Mass spectrometer parameters were set as follows: cone voltage, 40.0 V, for positive/negative ion mode; desolvation temperature, 200 °C; cone gas flow(N2), 1 L/h; and desolvation gas flow (N2), 650 L/h.

[12] = tested on: washed human platelets coincubated with A549, MDA-MB-231, or RPMI8226 cancer cells; test: Tumor cell-induced platelet aggregation (TCIPA); type: cell-based; conditions: anti-TF antibody 20 μg/mL, hirudin 0.01 μM, aspirin 100 μM, ticagrelor 1 μM
[13] = tested on: washed human platelets coincubated with A549 cancer cells; test: Tumor cell-induced platelet secretion (PDGF, ATP); type: cell-based
Experimental: (a) Washed human platelets were coincubated with A549 cancer cells under the same conditions as described in Figure 4. Secretion of PDGF and ATP were determined with the enzyme-linked immunosorbent assay (ELISA) and bioluminescent assay, respectively. (b) A549 cancer cells were coincubated with washed human platelets at 37 °C and 5% CO2 in a cell culture incubator for 48 h. After washing with PBS, the numbers of viable cancer cells were determined by trypan blue exclusion. Data are mean ± SEM of at least three independent experiments.
Washed human platelets were coincubated with cancer cells under the same conditions as described in the TCIPA assay. After a 25 min incubation in the aggregometer, the samples were centrifuged at 13,000g for 1 min. The concentrations of PDGF-BB and ATP in the supernatants were determined using an ELISA kit (Abcam, Cambridge, UK) and an ATP bioluminescent assay kit (Sigma, MO, USA), respectively.[52]

IC50 [1] | IC50 [2] | IC50 [3] | IC50 [4] | IC50 [6] | IC50 [7] | IC50 [8] | IC50 [9] | Permeability (%) [10] | stability in aqueous conditions (UPLC-MS) ([11]; 400 μM in water) | GSH adduct formation after GSH treatment (UPLC-MS) ([11]; 400 μM, GSH 4 mM) | Compound | IC50 [5] | S.I. (EAhy926/RPMI8226), selectivity index [8] | effect of comparators on TCIPA [12] | tumor cell-induced increase in extracellular PDGF and ATP (platelet secretion) [13]
5.19 ± 1.22 µM | 1.37 ± 0.03 µM | 16 ± 1.35 µM | 0.47 ± 0.05 µM | 17.55 ± 0.06 µM | 2.27 ± 0.8 µM | 5.89 ± 0.32 µM | 11.2 ± 1.01 µM | 12.64% | remained intact in aqueous conditions | only a small amount | COc1ccc(SC2=C(c3ccc(O)cc3O)C(=O)c3c(O)cccc3C2=O)cc1 [Compound 30, 2-(2,4-Dihydroxyphenyl)-3-((4-methoxyphenyl)thio)-8-hydroxynaphthalene-1,4-dione] | 11 ± 0.33 µM | 1.9 | – | –
– | – | – | – | – | – | – | – | – | – | – | hirudin | – | – | able to prevent the TCIPA | –
7.04 ± 1.71 µM | 4.61 ± 1.1 µM | 13.1 ± 1.59 µM | 0.53 ± 0.11 µM | 7.59 ± 0.16 µM | 0.77 ± 0.2 µM | 3.88 ± 0.23 µM | 5.13 ± 0.29 µM | 42.95% | – | – | O=C1C=C(c2ccc(O)cc2O)C(=O)c2c(O)cccc21 [Compound 29, 2-(2,4-Dihydroxyphenyl)-8-hydroxynaphthalene-1,4-dione] | 5.49 ± 0.09 µM | 1.4 | – | –
0.83 ± 0.11 µM | 1.88 ± 0.18 µM | 10.6 ± 0.85 µM | 1.67 ± 0.15 µM | 38.3 ± 2.65 µM | 1.16 ± 0.47 µM | 2.59 ± 0.25 µM | 17.3 ± 0.68 µM | 85.4% | – | – | O=C1C=C(Sc2ccc(F)cc2)C(=O)c2c(O)cccc21 [Compound 15, 2-((4-Fluorophenyl)thio)-8-hydroxynaphthalene-1,4-dione] | > 20 µM | >7.7 | – | –
0.35 ± 0.03 µM | 1.35 ± 0.13 µM | 6.62 ± 1.79 µM | 1.12 ± 0.31 µM | 12 ± 1.47 µM | 1.37 ± 0.26 µM | 0.57 ± 0.02 µM | 12.6 ± 0.68 µM | 61.4% | – | – | COc1ccc(OC2=CC(=O)c3cccc(O)c3C2=O)cc1 [Compound 21, 2-(4-Methoxyphenoxy)-8-hydroxynaphthalene-1,4-dione] | 6.03 ± 0.07 µM | 10.6 | – | –
0.64 ± 0.05 µM | 1.85 ± 0.17 µM | 15.1 ± 1.48 µM | 1.5 ± 0.05 µM | > 100 µM | 1.29 ± 0.3 µM | 3.5 ± 0.26 µM | > 20 µM | 8.5% | – | – | CC(C)(C)c1ccc(SC2=CC(=O)c3cccc(O)c3C2=O)cc1 [Compound 13, 2-((4-(tert-Butyl)phenyl)thio)-8-hydroxynaphthalene-1,4-dione] | > 20 µM | >5.7 | – | –
– | – | – | – | – | – | – | – | – | – | – | CCCSc1nc(N[C@@H]2C[C@H]2c2ccc(F)c(F)c2)c2nnn([C@@H]3C[C@H](OCCO)[C@@H](O)[C@H]3O)c2n1 [ticagrelor, reference compound] | – | – | no or little effect | not
0.52 ± 0.21 µM | 1.76 ± 0.08 µM | 14.1 ± 0.79 µM | 1.13 ± 0.25 µM | 15.3 ± 0.74 µM | 1.99 ± 0.63 µM | 4.21 ± 0.43 µM | > 20 µM | 16.9% | – | – | O=C1C=C(Br)C(=O)c2c(O)cccc21 [Compound 17, 2-Bromo-8-hydroxynaphthalene-1,4-dione] | > 20 µM | >4.8 | – | –
